# Legend:
# [1] = system: vit D-induced cardiovascular calcification; experiment: Inhibition of vit D-induced (300,000 IU/kg x3) cardiovascular calcification by s.c. IP6; format: in vivo, SD rats
# Method: Objective: to evaluate the efficacy of s.c. IP6 for inhibiting vit D-induced cardiovascular calcification in rats. Experimental: male SD rats were divided into 9 groups. Two of said groups (sham and control groups) received s.c. saline 2 ml/kg; 6 groups received s.c. […] One group was treated with a s.c. Alzet pump loaded with 200 mg/ml IP6. Calcification was induced by oral administration of 300,000 IU/kg vitamin D (2 ml/kg) for 3 days starting on treatment day 3. […] The calcium content in heart, aorta and kidneys was determined after treatment for 7 days.
# [2] = HAP crystallisation induction period (synergy with other treatments); format: physicochemical
# Method: Objective: to evaluate the potential synergies between the effects of IP6 and the effects of other treatments for renal impairment.
# Experimental: hydroxyapatite (HAP) was crystallised by mixing appropriate concentrations of calcium and phosphate at pH 7.4. The effect of cinacalcet and sevelamer was simulated by suitably modifying the calcium and phosphate concentrations. The induction period (time required for HAP to begin to crystallise) was recorded as the analytical signal.
# [3] = In vitro affinity (adsorption) of IP6 for hydroxyapatite; format: binding
# Method: Objective; the objective of this study is to analyse the affinity of IP6 for the target thereof, thereby obtaining a curve for the affinity of IP6 for HAP.
# […] The total quantity of IP6 bound to the surface of the target (HAP) was quantified.
# To characterise the behaviour of IP6 binding, the EC50 and Emax for the adsorption thereof on HAP were calculated. This was performed using a non-linear regression model (Log [agonist] vs. response−slope variable; GraphPad Prism software).
# [4] = In vitro binding kinetics of IP6 to HAP; conditions: 130 mg HAP
# Method: Objective: to analyse the binding rate of IP6 to HAP.
# Experimental: 130 mg HAP was incubated (in triplicate) with 7.6 μM IP6, at 37° C., pH 7.4, for different time intervals while stirring continuously.
# [5] = PK profile of IP6 s.c. in rats with normal and diminished kidney function; format: in vivo, Wistar rats
# Method: Objective: to evaluate the PK profile for rats with normal kidney function and renal impairment. Experimental: a single s.c. dose (10 mg/kg) was administered to rats with normal kidney function. Plasma samples were obtained at different timepoints up to 60 minutes. A different group of Wistar rats received oral treatment with adenine 600 mg/kg (p.o.) for 10 days to induce renal impairment. Alpha-calcidol (300 ng/kg) was administered on days 11 and 13 and plasma samples were collected at different timepoints up to 60 minutes on day 14. The plasma IP6 concentrations were quantified for both groups.
# [6] = PK profile of IP6 by 4 h intravenous infusion in normal and uraemic rats; format: in vivo, Wistar rats
# Method: Objective: to evaluate the PK profile for IP6 in rats with normal kidney function and non-dialysed rats with renal impairment by intravenous infusion.
# Experimental: Wistar rats with normal kidney function were treated daily with a dose of 10 or 50 mg/kg IP6 by intravenous fusion over 4 h. Plasma samples were obtained at different timepoints up to 4 hours on day 0. The animals were then treated orally with 600 mg/kg (p.o.) adenine for 10 days to induce renal impairment. The animals were treated with alpha-calcidol (300 ng/kg) on days 11 and 13 and plasma samples were collected at different timepoints up to 4 hours on day 14. The plasma IP6 levels were quantified for both groups.
# [7] = system: vitamin D-induced cardiovascular calcification; experiment: Inhibition of vit D-induced (75,000 IU/kg x5) cardiovascular calcification by intravenous IP6; format: in vivo, Sprague Dawley (SD) rats
# Method: Objective: to evaluate the efficacy of intravenous IP6 in inhibiting vitamin D-induced cardiovascular calcification in rats. Experimental: male Sprague Dawley (SD) rats were divided into 7 groups and IP6 was administered intravenously daily for 14 days at a dose of 0, 0.05, 0.1, 0.5, 1, 5 and 10 mg/kg. Calcification was induced by oral administration of 75,000 IU/kg vitamin D on treatment days 3 to 7. Samples were collected. On day 14 the aortas and hears of the animals were collected to quantify calcification.
# [8] = system: tissue calcification in chronic renal impairment model (5/6 nephrectomised rats); experiment: 5/6 nephrectomy model, IP6 i.v. bolus; format: in vivo, SD rats; conditions: i.v. bolus 1 or 5 mg/kg, 8 weeks
# Method: Objective: to determine the efficacy of intravenous IP6 in the prevention of tissue calcification in a chronic renal impairment model (5/6 nephrectomised rats).
# Experimental: 48 SD rats were 5/6 nephrectomised by complete right lateral nephrectomy and ⅔ partial nephrectomy of the left kidney. 16 animals per group were treated intravenously (bolus) with 2 ml/kg saline, 1 mg/kg IP6 or 5 mg/kg IP6. The animals received a phosphate-rich diet (1% Ca, 1.2% P) containing 20% lactose. After 8 weeks the aorta, heart and remaining ⅓ kidney were collected and the tissue calcium content determined.
# [9] = system: tissue calcification in chronic renal impairment model (adenine); experiment: Adenine model, bolus-type s.c. IP6; format: in vivo, Wistar rats; conditions: s.c. bolus 3, 10 and 30 mg/kg, 28 days, adenine rats
# Method: Objective: to determine the efficacy of IP6 in the prevention of tissue calcification in an animal model of chronic renal impairment (adenine).
# Experimental: CKD was induced in 4 groups (n=12) of male Wistar rats by oral (p.o.) treatment with adenine (600 mg/kg/day) daily for 10 days. After treatment with adenine, the rats received alpha-calcidol at a dose of 300 ng/kg (3×/week, p.o.) until day 28. From day 0 until sacrifice (day 28), the animals were treated with a 2 ml/kg s.c. bolus of 0, 3, 10 and 30 mg/kg IP6. At each treatment, 3 additional animals were included to evaluate the […] for IP6. After 28 days the aorta, heart and right kidney were collected and the tissue calcium content determined.
# [10] = system: tissue calcification in uraemic animals; experiment: Adenine model, non-bolus intravascular infusion of IP6; format: in vivo, Wistar rats
# Method: Objective: to determine the efficacy of IP6 as a non-bolus type administration in the prevention of tissue calcification in uraemic animals.
# Experimental: CKD was induced in 2 groups (n=12) of male Wistar rats by oral (p.o.) treatment with adenine (600 mg/kg/day) daily for 10 days. After treatment with adenine, the rats received alpha-calcidol at a dose of 300 ng/kg (3×/week, p.o.) until day 28. From day 0 until sacrifice (day 28), the animals were treated with an intravascular infusion of 50 mg/kg IP6 or saline for 4 hours. After 28 days the aorta and heart were collected and the tissue calcium content determined.
# [11] = Calcium chelation by IP6 in vitro; format: physicochemical; conditions: 2.5 mM calcium in 0.15 M NaCl, pH 7.40
# Method: Objective: to evaluate the ionic calcium chelation potential of IP6. Experimental: a 2.5 mM of calcium in NaCl 0.15 M, pH 7.40, was pipetted with increasing concentrations of IP6. The amount of free ionic calcium was measured potentiometrically using a calcium-selective electrode and a potentiometer.
# [12] = system: ECG and serum ionic calcium; experiment: Cardiovascular function after 2 h intravascular infusion of IP6 in conscious dogs (telemetry); format: in vivo; conditions: for peak IP6 level: dogs
# Method: Objective: to determine the effects of a non-bolus type administration of IP6 on the electrocardiogram (ECG) and serum ionic calcium concentrations.
# Experimental: 4 male dogs were treated with 3, 10 and 30 mg/kg IP6 by infusion for 2 h in a Latin square design. A washout period of one week was performed between doses. ECGs were measured telemetrically at 1 h and 20 minutes prior to infusion and 5, 15, 30, 45 minutes, 1, 2, 6 and 24 h post-infusion. In a second stage, blood samples were taken for PK, for the same doses, at 20 minutes prior to infusion and 5, 15, 30 minutes and 1, 1.5, 2, 3 and 6 h post-infusion. In this case the washout period between doses was 2 days. […]
# [13] = system: serum ionic calcium, ECG and clinical signs; experiment: Cardiovascular function after bolus intravenous IP6 in conscious dogs (telemetry); format: in vivo
# Method: Objective: to examine the effects of a bolus-type administration of IP6 in serum ionic calcium, ECG and clinical signs in dogs. Experimental: 4 male dogs, 2 per dose, were injected with 10, 15 and 30 mg/kg. Two washout days were introduced between the different doses. The ECGs were recorded telemetrically. Blood ionic calcium concentrations were determined on different days to the ECG measurements.
# [14] = Administration of IP6 via the dialysis system (closed circuit, human blood); format: in vitro ADME
# Method: Objective: to establish the dialysability of IP6 in human blood using a real dialysis system and the effect thereof on calcium chelation.
# Experimental: 1 liter of human blood obtained from patients undergoing therapeutic phlebotomy was introduced into a recipient forming a closed dialysis circuit to simulate a real dialysis. Two experiments were performed (administration pre- and post-dialyser, both in bypass and dialysis mode), administering IP6 to human blood for 20 minutes when outside the recipient (which simulated the animal or human body) and circulating via the dialysis circuit. The recipient containing 1 liter of whole blood at a controlled temperature of 37° C. is connected to the dialysis apparatus to form a closed circuit. The dialysis apparatus will be connected for 1 hour (dialysis fluid flow of 500 ml/min and blood flow of 350 ml/min). Blood samples are collected at different times to determine the IP6 and ionic calcium levels.
# [15] = without IP6, drug effect simulated by modifying calcium and phosphate concentrations
# [16] = normal Wistar rats, s.c. 10 mg/kg
# [17] = i.v. between 1 and 10 mg/kg daily for 14 days
# [18] = intravascular infusion 50 mg/kg for 4 hours, day 0-28, uraemic rats
molecule,measurement,setting,value
"O=P([O-])([O-])OP(=O)([O-])[O-].[Na+].[Na+].[Na+].[Na+] [pyrophosphate, sodium pyrophosphate, reference compound]",efficacy on calcification,"[1]; s.c., at higher doses than IP6",good efficacy
sevelamer [reference compound],induction period of HAP crystallisation,[2]; [15],15 min
"O=P(O)(O)O[C@H]1[C@H](OP(=O)(O)O)[C@@H](OP(=O)(O)O)[C@H](OP(=O)(O)O)[C@@H](OP(=O)(O)O)[C@H]1OP(=O)(O)O [IP6, inositol hexaphosphate]",Emax for adsorption on HAP (saturation),[3],6.42 mg/g
same,maximum adsorption of IP6 on the HAP surface,"[3]; 300 mg HAP, 7.6 μM IP6, 8 hours",4.8 mg
same,IP6 concentration at saturation of adsorption on HAP,"[3]; 37° C., pH 7.4",≥ 7.6 µM
same,time to adsorption maximum,"[4]; 7.6 μM IP6, 37° C., pH 7.4",60 min
same,fraction of maximum binding achieved,"[4]; after 5 minutes, 7.6 μM IP6",Around 80%
same,duration of measurable plasma levels,[5]; [16],at least 30 minutes
same,peak plasma concentration,[5]; [16],7.4 µM
same,time of peak concentration post-administration,[5]; [16],15 min
same,metabolites detected,"[5]; plasma, rats","Lower inositol phosphates (IP5, IP4, IP3, IP2, IP1) and inositol"
same,peak plasma concentration,"[5]; uraemic rats (adenine), s.c. 10 mg/kg",1.8 µM
same,peak plasma concentration,"[6]; normal rats, 10 mg/kg i.v. infusion over 4 h",8.4 µM
same,peak plasma concentration,"[6]; normal rats, 50 mg/kg i.v. infusion over 4 h",68.4 µM
same,peak plasma concentration,"[6]; uraemic rats, 10 mg/kg i.v. infusion over 4 h",2.8 µM
same,peak plasma concentration,"[6]; uraemic rats, 50 mg/kg i.v. infusion over 4 h",24.6 µM
same,time approximately constant plasma concentration maintained,"[6]; uraemic rats, 50 mg/kg infusion, from hour 1 to hour 4",3 h
same,effect on mineral content of the aorta and heart,[7]; i.v. 0.05 to 0.5 mg/kg daily for 14 days,did not affect
same,reduction of calcification in aorta,[7]; [17],up to 60%
same,reduction of calcification in heart,[7]; [17],≤ 68%
same,efficacy (inhibition of calcification),[1]; s.c. 60 mg/kg,approximately 60%
same,efficacy (inhibition of calcification),[1]; s.c. 100 mg/kg,approximately 60%
same,minimum dose that produced a significant effect on calcification,"[1]; s.c., aorta",10 mg/kg
same,"calcification inhibition (aorta, heart, remaining kidney)",[8],no evidence of calcification inhibition
same,"calcification inhibition (aorta, heart, right kidney)",[9],no evidence of calcification inhibition
same,reduction in average calcification in the aorta,[10]; [18],80%
same,reduction in average calcification in the heart,[10]; [18],85%
same,reduction of plasma IP6 levels by the end of the experiment,"[10]; uraemic rats, due to high metabolic rate",90%
same,IP6 concentration at saturation of calcium chelation,[11],3788 µM
same,IP6 concentration with significant ionic calcium chelation,[11],about 379 μM
same,peak IP6 level,[12]; 3 mg/kg infusion 2 h,27 µM
same,peak IP6 level,[12]; 10 mg/kg infusion 2 h,150 µM
same,peak IP6 level,[12]; 30 mg/kg infusion 2 h,482 µM
same,"state of health, weight, cardiorespiratory function, ECG, body temperature, total and free potassium in blood","[12]; infusion for 2 h, 3, 10 and 30 mg/kg, any dose",relatively unaffected
same,overall effects on dogs,"[12]; infusion of 3, 10 and 30 mg/kg for 2 h",no negative effects
same,ECG findings,"[13]; i.v. bolus above 15 mg/kg, becoming significant above 30 mg/kg",mild tachycardia and prolonged QTc interval
same,decrease in ionic calcium,"[13]; i.v. bolus, correlated with prolonged QTc",30%
same,dialysability of IP6,[14]; administration via dialysis line for 20 minutes,not lost via the dialysis membrane
same,effect on free calcium,[14]; apparatus in bypass mode,chelates (sequesters) free calcium
same,effect on ionic calcium,[14]; apparatus in dialysis mode,ionic calcium levels are restored
same,induction period of HAP crystallisation,"[2]; 11.4 μM IP6, pH 7.4, control 8 minutes",28 min
same,combination effect on induction period,[2]; IP6 0-11.4 μM with simulated cinacalcet or sevelamer,clear synergistic effect
"C[C@@H](NCCCc1cccc(C(F)(F)F)c1)c1cccc2ccccc12 [cinacalcet, reference compound]",induction period of HAP crystallisation,[2]; [15],14 min

# Reference: patent US10010559B2, “Use of derivatives containing C-O-P bonds in patients with kidney failure” (LABORATORIOS SANIFIT, S.L., priority 2013, dated 2018)
